Values of other authors, collected in patent publication US8263663B2, “Azide functionalized peptide targeting groups” (Intezyne Technologies, Inc., priority 2005, dated 2012).

Conditions: at similar concentrations (to 225 μg/mL)

COc1cccc2c1C(=O)c1c(O)c3c(c(O)c1C2=O)C[C@@](O)(C(=O)CO)C[C@@H]3O[C@H]1C[C@H](N)[C@H](O)[C@H](C)O1 [DOX, doxorubicin]
hemolysis: > 10%
